Laboratory results: paper PMC5040251, “The Structure of Treponema pallidum Tp0751 (Pallilysin) Reveals a Non-canonical Lipocalin Fold That Mediates Adhesion to Extracellular Matrix Components and Interactions with Host Cells” (PLoS Pathogens, 2016)
Ends that are not written are not given here.

Tests used:
collagen type I = assay: Initial (single point) binding screen of Tp0751 peptide library to immobilized collagen type I; conditions: immobilized human collagen type I; absorbance 600 nm, three wells, two independent experiments; Student's two-tailed t-test against non-binding peptides
Experimental: (§1) Fig 3 Tp0751 lipocalin derived peptides directly bind host proteins. (A) Thirteen overlapping Tp0751 synthetic 24-mer peptides were evaluated for binding to immobilized fibrinogen, fibronectin, collagen type I, and collagen type IV. Average absorbance readings (600 nm) from three wells are presented with bars indicating standard error and the results are representative of two independent experiments. […] Average absorbance readings (600 nm) from three wells are presented with bars indicating standard error and the results are representative of two independent experiments. […] The strand colored in cyan reflects the overlap of p10 and p11. Color coded sequences of peptides p4, p6, p10, p10scr1, and p10scr2 are shown. Arginine residues in the p10 peptides are indicated by underlining.
(§2) Plasminogen-depleted human fibrinogen (Calbiochem) was purchased from VWR International. Laminin isolated from Engelbreth-Holm-Swarm murine sarcoma basement membrane and fibronectin isolated from human plasma were purchased from Sigma-Aldrich Canada Ltd. (Oakville, ON). Human collagen types I and IV (Rockland Immunochemicals, Inc.) were purchased from VWR International.
(§3) To test for binding of synthetic Tp0751 peptides p1-p13, p1scr, p6scr, p10scr1, and p10scr2 to the host proteins fibrinogen, fibronectin, laminin, collagen type I, and collagen type IV, initial binding assays were performed as described previously. For dose-dependent binding assays, recombinant proteins were serially diluted 1:2 from either 10 μM to 0.156 μm (Tp0751_78A used for crystallization and Tp0751_78 WT) or 40 μm to 0.625 μm (peptides p4, p6, p10, p11, p10scr1, and p10scr2). Average absorbance readings (600 nm) from three wells are presented with bars indicating standard error and the results are representative of two independent experiments. Plates were read at 600 nm with a BioTek enzyme-linked immunosorbent assay plate reader (Fisher Scientific, Ottawa, ON). All statistical analyses were performed using the Student’s two-tailed t-test. Non-linear regression curves were fitted and apparent dissociation constants (K d) were calculated using GraphPad Prism data analysis software (San Diego, CA).

collagen type IV = assay: Initial (single point) binding screen of Tp0751 peptide library to immobilized collagen type IV; conditions: immobilized human collagen type IV; absorbance 600 nm, three wells, two independent experiments; Student's two-tailed t-test against non-binding peptides
Experimental: as §1, §2, §3

HUVEC monolayers = assay: Peptide competitive inhibition assay: stationary adhesion of Tp0751-expressing B. burgdorferi (Bb-Tp0751) to HUVEC monolayers; assay type: cell-based, human; conditions: for Effect on adhesion of Bb-Tp0751 to HUVEC monolayers: HUVECs on matrigel pre-incubated with 0.1 μg peptide per well for 3 h at 37°C, peptide removed, bacteria 12 h at 36°C, GFP bacteria counted in ten FOV, 400x, compared with scrambled peptide
Experimental: Fig 5 Tp0751 peptide 10 inhibits adhesion of Tp0751-expressing B. burgdorferi to HUVEC monolayers. (A) Schematic showing the experimental design of the competitive inhibition assay. Confluent HUVEC monolayers seeded on artificial basement membrane were preincubated with synthetic Tp0751 peptides (p4, p6, p10, p11, p4scr, p6scr, and p10scr1) to allow for peptide-endothelial cell interactions. HUVECs were then co-incubated with parent (negative control) or Tp0751-expressing B. burgdorferi strains to assess the competitive inhibition capacity of the synthetic Tp0751 peptides. After washing to remove non-adherent bacteria, B. burgdorferi adhesion to HUVECs was quantified using fluorescence microscopy to count the number of adherent bacteria per field of view (FOV) at 400x magnification. (B) Bar graph illustrating the number of adherent B. burgdorferi per FOV. Mean counts ± SEM from ten FOV for each biological replicate are presented with standard error bars. For statistical analyses, attachment by strain Bb-Tp0751 to HUVEC monolayers preincubated with peptides p4, p6, and p10 was compared to the attachment of strain Bb-Tp0751 in the presence of corresponding scrambled peptides, using the Student’s two-tailed t-test. […] The parent and Bb-Tp0751 strains are indicated by clear white bars and striped colored bars, respectively. […] Mean counts ± SEM from ten FOV for each biological replicate are presented with standard error bars. Statistical analysis, was performed using the Student’s two-tailed t-test.
Human umbilical vein endothelial cells (HUVECs) pooled from multiple donors and purchased from Lonza (Allendale, NJ) were cultured in endothelial growth medium-2 (EGM-2) (Lonza) at 37°C in an atmosphere of 5% CO2, as per manufacturer’s instructions. B. burgdorferi strains were cultivated at 36°C in an atmosphere of 1.5% CO2 in BSK-II medium prepared in-house with appropriate antibiotics (100 μg/mL gentamycin, 200 μg/mL kanamycin).
Stationary adhesion assays were adapted from Szczepanski and colleagues and Cameron and colleagues. HUVECs (passage 2–3) were seeded in 4-well chamber slides (Nalge Nunc International, Rochester, NY), coated with 500 μg/mL phenol red-free matrigel (Corning, Tewksbury, MA) and grown 20 h at 37°C in 5% CO2 to form confluent monolayers. Synthetic Tp0751 peptides (p4, p6, p10, p11, […], p4scr, p6scr, and p10scr1) were diluted to 500 μg/ml in HEPES buffered saline solution (Lonza) and HUVECs were pre-incubated with 0.1 μg of Tp0751 peptide per well for 3 h at 37°C in 5% CO2. Peptide solutions were removed from HUVECs prior to the addition of bacteria. Borrelia burgdorferi strains were cultured in biological triplicate, and two days prior to the experiment, B. burgdorferi cultures were passaged to 6x10^5 cells/ml and grown for 48 h to reach a concentration of 2x10^7 cells/ml. Borrelia burgdorferi cultures were then centrifuged and resuspended in a 3:1 mixture of BSK-II:EGM-2 and 1.4x10^7 cells of each biological replicate were added to HUVECs in duplicate wells. […] Quantitation of B. burgdorferi adhesion to HUVECs was performed by counting GFP-expressing bacteria in ten fields of view (FOV) from duplicate wells for each biological replicate under 400X magnification on a Nikon 80i fluorescence microscope (Meridian Instrument Company, Inc., Kent, WA) fitted with a monochrome digital camera, a dark-field condenser, and fluorescein filter (Excelitas Technologies, Mississauga, ON). […]

fibronectin = assay: Dose-dependent binding assay to immobilized fibronectin; conditions: plate binding to immobilized human plasma fibronectin; peptides serially diluted 1:2 from 40 to 0.625; absorbance 600 nm, three wells, representative of two independent experiments; non-linear regression, GraphPad Prism; read-out: Apparent Kd (Fn)
Experimental: as §1, §2, §3

Row | Sequence | Binding to collagen I in initial binding screen (collagen type I) | Binding to collagen IV in initial binding screen (collagen type IV) | Effect on adhesion of Bb-Tp0751 to HUVEC monolayers (HUVEC monolayers) | Kd (fibronectin) | Peptide concentration giving statistically significant lower binding of Bb-Tp0751 to HUVEC monolayers compared with p8 (HUVEC monolayers; preincubation with 0-545 nM peptide, Student's two-tailed t-test, p≤0.005)
1 | HHHHHHSIRRRLEVTFESHEVIHVRAVEDV [p11] | statistically significant binding | statistically significant binding | did not alter adhesion | 5.8 ± 0.3 µM | 
2 | HHHHHHRKTVSFLTRNTAISSIRRRLEVTF [p10] | not to collagen I | significant binding | significantly reduced binding | 1.6 ± 0.2 µM | ≥ 5.45 nM
3 | HHHHHHGGAAQTHTQPPVQTAMRIALWNRA [p4] | statistically significant binding | statistically significant binding | did not alter adhesion | 2.4 ± 0.1 µM | 
4 | HHHHHHQGALQHLLAGLWIQTEISPNSGDI [p6] | statistically significant binding | statistically significant binding | did not alter adhesion | 4.5 ± 0.9 µM | 
